Patent US20260285853A1, “COMPOUNDS AND METHODS FOR MODULATING SPLICING” (REMIX THERAPEUTICS INC., priority 2023, published 2026)
Structures can show the parent of a compound that is named as a salt. Where two headings read alike, the source gives them in different places.

Assays:
Type in all cases: cell-based
[1] = tested on: HTT mRNA; experiment: Splicing RT-qPCR assay (THP), Table 2A
[2] = tested on: SH-SY5Y (human neuroblastoma) cells; experiment: Cell viability, Cell Titer Glo 2.0 assay; settings: read-out: Viability SHSY5Y.3 GI50
Description: Compounds described herein were screened for toxicity in K562 (human chronic myelogenous leukemia) and SH-SY5Y (human neuroblastoma) cells using a Cell Titer Glo 2.0 assay.
• Promega CellTiter-Glo® 2.0 Cell Viability Assay (cat #G9241) • Corning 384-well TC-treated microplates (cat #3570)
Cells were plated at 500 cells/well (K562 cells) in 45 μL of IMDM supplemented with 10% FBS in a 384-well opaque plate. Wells containing only medium were used as a blank control. Test compounds (e.g., compounds of Formula (I) or (II) were first serially diluted in DMSO then diluted 1:100 with IMDM+10% FBS. The final concentration of DMSO was 0.1% in each well. The cells were incubated for 72 hours at 37° C. and 5% CO2 before assaying with Cell Titer Glo 2.0 reagent.

[3] = tested on: MYB mRNA; experiment: Splicing RT-qPCR assay (THP), Table 2A
[4] = tested on: HTT mRNA; experiment: Gene panel canonical junction qPCR assay, decrease in CJ mRNA, Table 3
Description: (§1) Compounds described herein were used to modulate RNA transcript abundance in cells. The expression of a target mRNA was measured by detecting the formation of an exon-exon junction in the canonical transcript (CJ). A compound mediated exon-inclusion event was detected by observing an increase in formation of a new junction with an alternative exon (AJ). Real-time qPCR assays were used to detect these splicing switches and interrogate the potency of various compounds towards different target genes. A high-throughput real time quantitative PCR (RT-qPCR) assay was developed to measure these two isoforms of the mRNA (CJ and AJ) for exemplary genes, such as HTT, SMN2, and MYB, together with a control housekeeping gene, GAPDH or GUSB or PPIA, used for normalization. Briefly, the A673 or K562 cell line was treated with various compounds described herein (e.g., compounds of Formula (I)). After treatment, the levels of the HTT, MYB, or SMN2 mRNA targets were determined from each sample of cell lysate by cDNA synthesis followed by qPCR.
(§2) The A673 cell line was cultured in DMEM with 10% FBS. Cells were diluted with full growth media and plated in a 96-well plate (15,000 cells in 100 ul media per well). The plate was incubated at 37° C. with 5% CO2 for 24 hours to allow cells to adhere. An 11-point 3-fold serial dilution of the compounds was made in DMSO then diluted in media in an intermediate plate. Compounds were transferred from the intermediate plate to the cell plate with the top dose at a final concentration of 10 uM in the well. Final DMSO concentration was kept at or below 0.25%. The cell plate was returned to the incubator at 37° C. with 5% CO2 for an additional 24 hours.
(§3) The K562 cell line was cultured in IMDM with 10% FBS. For K562, cells were diluted with full growth media and plated in either a 96-well plate (50,000 cells in 50 uL media per well) or a 384-well plate (8,000-40,000 cells in 45 uL media per well). An 11-point 3-fold serial dilution of the compounds were made in DMSO then diluted in media in an intermediate plate. Compound was transferred from the intermediate plate to the cell plate with the top dose at a final concentration of 10 uM in the well. Final DMSO concentration was kept at or below 0.25%. Final volume was 100 uL for 96-well plate and 50 uL for 384-well plate. The cell plate was then placed in an incubator at 37° C. with 5% CO2 for 24 hours.
(§4) The data analysis was performed by first determining the ΔCt vs the housekeeper gene. This ΔCt was then normalized against the DMSO control (ΔΔCt) and converted to RQ (relative quantification) using the 2^(−ΔΔCt) equation. The RQ were then converted to a percentage response by arbitrarily setting an assay window of 3.5 and 4.0 ΔCt for HTT-CJ and MYB-CJ respectively and an assay window of 9 and 3 ΔCt for HTT-AJ and MYB-AJ in 96 well format (50,000 K562 cells/well and 15,000 A673 cells per well) and an assay window of 3 and 4 ΔCt for HTT-CJ and MYB-CJ respectively and an assay window of 5 and 3 ΔCt for HTT-AJ and MYB-AJ respectively in 384 well format (8,000 K562 cells/well example). […] The percentage response was then fitted to the 4 parametric logistic equation to evaluate the concentration dependence of compound treatment. The increase in AJ mRNA is reported as AC50 (compound concentration having 50% response in AJ increase) while the decrease in CJ mRNA levels is reported as IC50 (compound concentration having 50% response in CJ decrease).
(§5) Additional studies were carried out for a larger panel of genes using the protocol provided above. The junction between flanking upstream and downstream exons was used to design canonical junction qPCR assays. At least one of the forward primer, reverse primer or the CY5-labeled 5′ nuclease probe (with 3′ quencher such as ZEN/Iowa Black FQ) was designed to overlap with the exon junction to capture the CJ mRNA transcript. […]

[5] = tested on: MYB mRNA; experiment: as above
Description: as §1, §2, §3, §4, §5

[6] = Table 2A, THP, HTT alternative junction (AJ) mRNA, read-out: HTT AJ (AC50, increase in alternative junction mRNA)
[7] = Table 2A, THP, HTT canonical junction (CJ) mRNA, read-out: HTT CJ (IC50, decrease in canonical junction mRNA)
[8] = Table 2A, THP, MYB alternative junction (AJ) mRNA, read-out: MYB AJ (AC50, increase in alternative junction mRNA)
[9] = Table 2A, THP, MYB canonical junction (CJ) mRNA, read-out: MYB CJ (IC50, decrease in canonical junction mRNA)
[10] = decrease in CJ mRNA levels, canonical junction qPCR, gene panel
[11] = Table 2A (THP), AJ mRNA increase, read-out: HTT AJ (increase in alternative junction mRNA, AC50)
[12] = Table 2A (THP), CJ mRNA decrease, read-out: HTT CJ (decrease in canonical junction mRNA, IC50)
[13] = Table 2A (THP), AJ mRNA increase, read-out: MYB AJ (increase in alternative junction mRNA, AC50)
[14] = Table 2A (THP), CJ mRNA decrease, read-out: MYB CJ (decrease in canonical junction mRNA, IC50)
[15] = decrease in canonical junction (CJ) mRNA, gene panel qPCR, Table 3

Compound	AC50 [1, 6] [nM]	IC50 [1, 7] [nM]	GI50 [2] [nM]	AC50 [3, 8] [nM]	IC50 [3, 9] [nM]	IC50 [4, 10] [nM]	IC50 [5, 10] [nM]	AC50 [1, 11] [nM]	IC50 [1, 12] [nM]	AC50 [3, 13] [nM]	IC50 [3, 14] [nM]	IC50 [4, 15] [nM]	IC50 [5, 15] [nM]
CCNC1CCN(c2cc(F)c(C(=O)Nc3cn4ccnc4nc3OC)c3nn(C)cc23)CC1 [Compound 692, 4-[4-(ethylamino)-1-piperidyl]-6-fluoro-N-(7-methoxyimidazo[1,2-a]pyrimidin-6-yl)-2-methyl-indazole-7-carboxamide]	100 to 1000	1000 to 10000	1000 to 10000	< 100	< 100	1000 to 10000	< 100	–	–	–	–	–	–
CCNC1CCN(c2cc(F)c(C(=O)Nc3cn4cc(C)nc4cc3OC)c3nn(C)cc23)CC1 [Compound 331, 4-[4-(ethylamino)-1-piperidyl]-6-fluoro-N-(7-methoxy-2-methyl-imidazo [1,2-a]pyridin-6-yl)-2-methyl-indazole-7-carboxamide]	–	–	1000 to 10000	–	–	–	–	100 to 1000	100 to 1000	< 100	< 100	100 to 1000	< 100
COc1nc2c(N3CCC(NC4CC4)CC3)ccc(C(=O)Nc3cc4cn(C)nc4cc3OC)c2o1 [Compound 679, 4-[4-(cyclopropylamino)-1-piperidyl]-2-methoxy-N-(6-methoxy-2-methyl-indazol-5-yl)-1,3-benzoxazole-7-carboxamide]	1000 to 10000	1000 to 10000	1000 to 10000	< 100	100 to 1000	1000 to 10000	100 to 1000	–	–	–	–	–	–
CCNCC1CCN(c2cc(F)c(C(=O)Nc3cn4cc(C)nc(C)c4n3)c3nn(C)cc23)C1 (centres unmarked) [Compound 471, N-(6,8-dimethylimidazo-[1,2-a]-pyrazin-2-yl)-4-(3-[(ethylamino)methyl]-pyrrolidin-1-yl)-6-fluoro-2-methyl-indazole-7-carboxamide]	–	–	1000 to 10000	–	–	–	–	> 10000	> 10000	100 to 1000	100 to 1000	> 10000	100 to 1000
Cc1cn2cc(NC(=O)c3ccc(N4CC(C5CCNCC5)C4)c4cn(C)nc34)nc2c(C)n1 [Compound 499]	–	–	1000 to 10000	–	–	–	–	1000 to 10000	1000 to 10000	1000 to 10000	1000 to 10000	1000 to 10000	1000 to 10000
COc1cc2nn(C)cc2cc1NC(=O)c1ccc(N2CCN(C3CNC3)CC2)c2cn(C)nc12 [Compound 544]	–	–	100 to 1000	–	–	–	–	100 to 1000	100 to 1000	100 to 1000	100 to 1000	100 to 1000	100 to 1000
COc1nc2c(C(=O)Nc3ccc4c(c3)OCCO4)ccc(N3C[C@H](C)N[C@@H](C)C3)c2s1 [Compound 716, N-(2,3-dihydro-1,4-benzodioxin-6-yl)-7-[(3S,5S)-3,5-dimethylpiperazin-1-yl]-2-methoxy-1,3-benzothiazole-4-carboxamide]	> 10000	1000 to 10000	1000 to 10000	1000 to 10000	1000 to 10000	1000 to 10000	1000 to 10000	–	–	–	–	–	–
Cn1cc2cc(NC(=O)c3ccc(N4CCC(NC5CC5)CC4)c4cn(C)nc34)cc(CNc3ncco3)c2n1 [Compound 880]	> 10000	> 10000	1000 to 10000	1000 to 10000	1000 to 10000	> 10000	1000 to 10000	–	–	–	–	–	–
Cc1cn2cc(NC(=O)c3c(F)cc(N4CCC(NC5CC5)CC4)c4cn(C)nc34)cc(Oc3cn[nH]c3)c2n1 [Compound 410, N-(8-((1H-pyrazol-4-yl)oxy)-2-methylimidazo[1,2-a]-pyridin-6-yl)-4-(4-(cyclopropylamino)piperidin-1-yl)-6-fluoro-2-methyl-2H-indazole-7-carboxamide 2,2,2-trifluoroacetate]	–	–	> 10000	–	–	–	–	> 10000	> 10000	> 10000	> 10000	> 10000	> 10000
Cc1cn2cc(NC(=O)c3ccc(N4CCC(NC5CC5)CC4)c4cn(C)nc34)nc2c(-c2cnoc2)n1 [Compound 462, 4-[4-(cyclopropylamino)-1-piperidyl]-N-(8-isoxazol-4-yl-6-methyl-imidazo[1,2-a]-pyrazin-2-yl)-2-methyl-indazole-7-carboxamide]	–	–	1000 to 10000	–	–	–	–	> 10000	> 10000	> 10000	> 10000	> 10000	> 10000
CCNC1CCN(c2cc(F)c(C(=O)Nc3cn4cc(C)nc(CC)c4n3)c3nn(C)cc23)CC1 [Compound 362, 4-[4-(ethylamino)-1-piperidyl]-N-(8-ethyl-6-methyl-imidazo[1,2-a]pyrazin-2-yl)-6-fluoro-2-methyl-indazole-7-carboxamide]	–	–	1000 to 10000	–	–	–	–	> 10000	> 10000	< 100	100 to 1000	> 10000	100 to 1000
CC1OB(O)c2ccc(NC(=O)c3c(F)cc(N4CCC(NC5CC5)CC4)c4cn(C)nc34)cc21 (centres unmarked) [Compound 558, 4-(4-(cyclopropyl-amino)piperidin-1-yl)-6-fluoro-N-(1-hydroxy-3-methyl-1,3-dihydrobenzo[c]-[1,2]oxaborol-5-y1)-2-methyl-2H-indazole-7-carboxamide hydrochloride]	–	–	100 to 1000	–	–	–	–	> 10000	> 10000	1000 to 10000	1000 to 10000	> 10000	1000 to 10000
Cn1cc2cc(NC(=O)c3ccc(N4CCC(NC5CC5)CC4)c4cn(C)nc34)cc(CNc3cncs3)c2n1 [Compound 882]	> 10000	> 10000	1000 to 10000	100 to 1000	100 to 1000	> 10000	100 to 1000	–	–	–	–	–	–
CNC1CCC(Oc2ccc(C(=O)Nc3cc4cn(C)nc4cc3OC)c3nn(C)cc23)CC1 (centres unmarked) [Compound 595]	–	–	1000 to 10000	–	–	–	–	> 10000	1000 to 10000	> 10000	> 10000	1000 to 10000	> 10000
